Source: US20260216299A1, “Use of Cytoglobin in Preparation of Drug for Preventing and/or Treating Diabetes” (priority 2022, published 2026)

Columns and labels:
[1] = system: C57BL/6J diabetic model mice; assay: Four blood lipid items in serum of treated mice (T-CHO, TG, HDL-C, LDL-C kits); assay type: in vivo, C57BL/6J mice; details: subcutaneous rhCygb 5 mg/kg or exendin-4 50 μg/kg, after 28 d of treatment
Description: (§1) The AUC for blood glucose changes within two hours post-glucose gavage was shown in FIG. 5, confirming impaired glucose tolerance in the DM group. • 2) Successfully modeled mice were divided into three groups based on no statistical difference in blood glucose within groups and statistical difference in blood glucose between groups: wherein the three groups are rhCygb treatment group (5 mg/kg subcutaneous injection), exendin-4 treatment group (50 μg/kg subcutaneous injection), and placebo group (0.1 mL PBS subcutaneous injection) (grouping without re-caging, mice remained in original cages), respectively.
(§2) The mice of placebo group, rhCygb treatment group, and EX-4 treatment group received daily subcutaneous injections of PBS, rhCygb, or EX-4, respectively for 2 months (frequency adjusted based on survival status of mice). […] Absorbance at 510 nm was measured using a microplate reader. Cholesterol content was calculated according to the formula: […]
Serum from each treated C57BL/6J mouse was assayed using a total cholesterol assay kit. […] Absorbance at 510 nm was measured using a microplate reader. […] content was calculated according to the formula: […]
Serum from each treated C57BL/6J mouse was assayed using a triglyceride assay kit. […] Absorbance at 546 nm (A1) was measured using a microplate reader. […] Absorbance at 546 nm (A2) was measured again. […]

[2] = system: pancreatic tissue of C57BL/6J diabetic model mice; assay: H&E staining of pancreatic tissue sections; assay type: in vivo, C57BL/6J mice; details: acinar cell steatosis, islet morphology, inflammation; FIGS. 12A-12D
Description: as §1, §2
The severity of lesions observed in the HE-stained pathological sections of each mouse was graded. This ordinal data was analyzed using the K Independent Samples non-parametric test in SPSS software, and the result indicated a statistically significant difference between groups. As SPSS lacks pairwise comparison for multiple independent samples, all data were ranked and converted into quantitative data, then subjected to one-way ANOVA.

With Exendin-4 [reference compound] the total cholesterol levels ([1]; FIG. 8) was “statistically significant reduction in total cholesterol levels compared to the placebo group”, the LDL-C levels ([1]; FIG. 11) was “statistically significant reduction in LDL-C levels compared to the placebo group” and the “pancreatic tissue morphology (H&E)” value [2] was “persistent acinar steatosis similar to the PBS group”.
